Data reported in ChEMBL document CHEMBL3244338, “Antineoplastic agents. Structure-activity relationship study of bis(substituted aminoalkylamino)anthraquinones” (J Med Chem, 1978).
The source made the active and inactive calls. The rule behind the calls is not given here.

Columns and labels:
P388 [1] = experiment: Antitumor activity against mouse P388 cells allografted in BDF1 mouse assessed as increase in survival time at 25 mg/kg administered 24 hrs post challenge relative to control; assay type: functional
P388 [2] = experiment: Antitumor activity against mouse P388 cells allografted in BDF1 mouse assessed as increase in survival time at 50 mg/kg administered 24 hrs post challenge relative to control; assay type: functional
Mus musculus [3] = experiment: Toxicity in mouse P388 cells allografted BDF1 mouse assessed as body weight difference at 25 mg/kg administered 24 hrs post challenge relative to control; assay type: organism-based; design: dose 25 mg/kg; settings: in vivo
P388 [4] = experiment: Antitumor activity against mouse P388 cells allografted in BDF1 mouse assessed as mouse survival at 25 mg/kg administered 24 hrs post challenge relative to control; assay type: functional, organism-based; design: dose 25 mg/kg
P388 [5] = experiment: Antitumor activity against mouse P388 cells allografted in BDF1 mouse assessed as increase in survival time at 100 mg/kg administered 24 hrs post challenge relative to control; assay type: functional
Mus musculus [6] = experiment: Toxicity in mouse P388 cells allografted BDF1 mouse assessed as body weight difference at 50 mg/kg administered 24 hrs post challenge relative to control; assay type: organism-based; design: dose 50 mg/kg; settings: in vivo
Mus musculus [7] = experiment: Toxicity in mouse P388 cells allografted BDF1 mouse assessed as body weight difference at 100 mg/kg administered 24 hrs post challenge relative to control; assay type: organism-based; design: dose 100 mg/kg; settings: in vivo
P388 [8] = experiment: Antitumor activity against mouse P388 cells allografted in BDF1 mouse assessed as increase in survival time at 3.13 mg/kg administered 24 hrs post challenge relative to control; assay type: functional
Mus musculus [9] = experiment: Toxicity in mouse P388 cells allografted BDF1 mouse assessed as body weight difference at 12.5 mg/kg administered 24 hrs post challenge relative to control; assay type: organism-based; design: dose 12.5 mg/kg; settings: in vivo
Mus musculus [10] = experiment: Toxicity in mouse P388 cells allografted BDF1 mouse assessed as body weight difference at 3.13 mg/kg administered 24 hrs post challenge relative to control; assay type: organism-based; design: dose 3.13 mg/kg; settings: in vivo
Mus musculus [11] = experiment: Toxicity in mouse P388 cells allografted BDF1 mouse assessed as body weight difference at 6.25 mg/kg administered 24 hrs post challenge relative to control; assay type: organism-based; design: dose 6.25 mg/kg; settings: in vivo
P388 [12] = experiment: Antitumor activity against mouse P388 cells allografted in BDF1 mouse assessed as mouse survival at 3.13 mg/kg administered 24 hrs post challenge relative to control; assay type: functional, organism-based; design: dose 3.13 mg/kg
P388 [13] = experiment: Antitumor activity against mouse P388 cells allografted in BDF1 mouse assessed as increase in survival time at 12.5 mg/kg administered 24 hrs post challenge relative to control; assay type: functional
P388 [14] = experiment: Antitumor activity against mouse P388 cells allografted in BDF1 mouse assessed as increase in survival time at 6.25 mg/kg administered 24 hrs post challenge relative to control; assay type: functional
P388 [15] = experiment: Antitumor activity against mouse P388 cells allografted in BDF1 mouse assessed as mouse survival at 6.25 mg/kg administered 24 hrs post challenge relative to control; assay type: functional, organism-based; design: dose 6.25 mg/kg
P388 [16] = experiment: Antitumor activity against mouse P388 cells allografted in BDF1 mouse assessed as mouse survival at 12.5 mg/kg administered 24 hrs post challenge relative to control; assay type: functional, organism-based; design: dose 12.5 mg/kg
P388 [17] = experiment: Antitumor activity against mouse P388 cells allografted in BDF1 mouse assessed as mouse survival at 50 mg/kg administered 24 hrs post challenge relative to control; assay type: functional, organism-based; design: dose 50 mg/kg
P388 [18] = experiment: Antitumor activity against mouse P388 cells allografted in BDF1 mouse assessed as mouse survival at 100 mg/kg administered 24 hrs post challenge relative to control; assay type: functional, organism-based; design: dose 100 mg/kg

SMILES | T/C (P388 [1]) [%] | T/C (P388 [2]) [%] | Activity (Mus musculus [3]) [g] | Activity (P388 [4]) | T/C (P388 [5]) [%] | Activity (Mus musculus [6]) [g] | Activity (Mus musculus [7]) [g] | T/C (P388 [8]) [%] | Activity (Mus musculus [9]) [g] | Activity (Mus musculus [10]) [g] | Activity (Mus musculus [11]) [g] | Activity (P388 [12]) | T/C (P388 [13]) [%] | T/C (P388 [14]) [%] | Activity (P388 [15]) | Activity (P388 [16]) | Activity (P388 [17]) | Activity (P388 [18])
O=C1c2ccccc2C(=O)c2c3c(cc(NCCNCCO)c21)N(CCO)CCN3 | 155 | 163 | -3.2 | Active | 101 | -3.5 | -3.8 | – | – | – | – | – | – | – | – | – | – | –
CCNCCNc1ccc(NCCNCC)c2c1C(=O)c1ccccc1C2=O | 132 | – | -4.8 | – | – | – | – | 142 | -2.8 | -2.3 | -2.2 | Active | 168 | 149 | Active | – | – | –
O=C1c2ccccc2C(=O)c2c(NCCCNCCO)ccc(NCCCNCCO)c21 | 130 | 133 | -2.1 | – | 98 | -2.1 | -2.6 | – | -1.4 | – | 0.9 | – | 117 | 101 | Active | Active | Active | –
CNCCNc1ccc(NCCNC)c2c1C(=O)c1ccccc1C2=O | – | – | – | – | – | – | – | – | -1.9 | – | – | – | 200 | – | – | Active | – | –
O=C1c2ccccc2C(=O)c2c(NCCSCCO)ccc(NCCSCCO)c21 | 95 | 86 | -1.6 | Active | 94 | -1.4 | -2.2 | – | – | – | – | – | – | – | – | – | Active | Active
O=C1c2ccccc2C(=O)c2c(NCCN3CCNCC3)ccc(NCCN3CCNCC3)c21 | 137 | 134 | -1 | Active | – | -2.7 | – | – | -1.1 | – | -0.4 | – | 117 | 125 | Active | Active | – | –
CCCNCCNc1ccc(NCCNCCC)c2c1C(=O)c1ccccc1C2=O | 118 | 125 | -0.8 | Active | 124 | -1.7 | -2.6 | – | – | – | – | – | – | – | – | – | Active | Active
O=C1c2ccccc2C(=O)c2c(NCCNCCNCCO)ccc(NCCNCCNCCO)c21 | 110 | 112 | -1.6 | Active | 120 | -1.3 | -2.6 | – | – | – | – | – | – | – | – | – | Active | –
O=C1c2ccccc2C(=O)c2c(NCCN3CCCCC3)ccc(NCCN3CCCCC3)c21 | 104 | 110 | -3.6 | Active | 128 | -2.9 | -4.5 | – | – | – | – | – | – | – | – | – | Active | Active
O=C1c2ccccc2C(=O)c2c(NCCCCCO)ccc(NCCCCCO)c21 | 88 | 78 | -1.4 | Active | 88 | -1.5 | -4 | – | – | – | – | – | – | – | – | – | Active | Active
